Each structure is given as a SMILES string. Read-outs that look alike come from different tables or passages of the source.

These results are taken from patent US11523614B2, “Soluble granule of Bacillus velezensis and its preparation method” (priority 2019, dated 2022).

Format in all cases: in vivo
Experiment [1] relates to Rice blast. The settings on record: 27 d After first administration; for Relative control: panicle blast.
The subject of experiment [2] is Rice blast. The note with it: for Avg. control effect: leaf blast.
The subject of a further experiment is cucumber. Description: Cucumber plant height at early stage. The note with it: for Growth effect: plant height compared with CK0; for plant height at early stage, Avg. value: average of three replicates; for plant height at early stage, R1: average value of replicate 1; for plant height at early stage, R3: average value of replicate 3.
Experiment [3] has as its system Meloidogyne incognita. Description: Population density of J2 of root knot nematodes in soil, cucumber greenhouse. The settings on record: for Population decline rate / Relative population reduction rate: J2 in soil; for Population decline rate: before administration vs end of test; for Relative population reduction rate: compared with the blank control; for population density of second instar larvae in soil, Before administration / population density of second instar larvae in soil, End of test: cucumber greenhouse soil.

Experiment [4] has as its system Meloidogyne incognita. The experiment is described as follows: Root-knot disease index of cucumber. The note with it: for root-knot index of plants, Avg. value: average of three replicates; for root-knot index of plants, R1: average value of replicate 1; for root-knot index of plants, R3: average value of replicate 3.
The mark [5] stands for this setting: 14 d After first administration.
Setting [6] is: before the first administration.
Setting [7] is: root-knot index compared with CK0.

On to `C[C@H]1O[C@H](O[C@H]2[C@H](O)[C@@H](O)[C@@H](O)[C@H](O)[C@@H]2O)[C@@H](N)C[C@@H]1NC(=N)C(=O)O` [CK2, kasugamycin], for which, in the experiment on Rice blast [1], the “Avg. panicle blast disease index” value turned out to be 0.86 and the Relative control turned out to be 66.3A %. Also, in the experiment on Rice blast [2] (7 d After first administration), the “Avg. leaf blast disease index” value is recorded as 2.26 and the Avg. control effect came out at 40.8AB %. In the experiment on Rice blast [2] (setting [5]), the “Avg. leaf blast disease index” value is given as 2.30 and the Avg. control effect amounted to 55.7A %. Moreover, in the experiment on Rice blast [2] (setting [6]), the “Leaf blast disease index before first administration” value amounted to 1.61. In the experiment on cucumber, the Growth effect was 6.5%. In the experiment with Meloidogyne incognita [3], the Population decline rate is 73.31% and the “Relative population reduction rate” value was 76.05%.
`O=C(NCc1ncc(C(F)(F)F)cc1Cl)c1c(Cl)cccc1Cl` [Fluopicolide, fluopicolide]: in the experiment with cucumber, the “plant height at early stage, Avg. value” is 107.6bc cm; the “plant height at early stage, R1” value came to 109.4 cm; the “plant height at early stage, R3” value is 109.3 cm; the Growth effect amounted to 6.5%. Also, in the experiment on Meloidogyne incognita [3], the Population decline rate came out at 73.31%; the “Relative population reduction rate” value came out at 76.05%; the “population density of second instar larvae in soil, Before administration” value is given as 390 strip/100 mL soil; the “population density of second instar larvae in soil, End of test” value amounted to 104 strip/100 mL soil. In the experiment with Meloidogyne incognita [4], the “root-knot index of plants, Avg. value” turned out to be 25.00a; the “root-knot index of plants, R1” value was found to be 28.33; the “root-knot index of plants, R3” value stood at 24.67. Also, in the experiment with Meloidogyne incognita [4] (setting [7]), the Growth effect stood at 30.77%.
`CN1CSC(=S)N(C)C1` [Dazomet, dazomet]: in the experiment with cucumber, the “plant height at early stage, Avg. value” is recorded as 100.6a cm; the “plant height at early stage, R1” value is 98.5 cm; the “plant height at early stage, R3” value was 103.5 cm; the Growth effect is reported as −0.4%. In addition, in the experiment on Meloidogyne incognita [3], the Population decline rate is recorded as −119.21%; the “Relative population reduction rate” value is given as −116.47%; the “population density of second instar larvae in soil, Before administration” value was found to be 429 strip/100 mL soil; the “population density of second instar larvae in soil, End of test” value turned out to be 940 strip/100 mL soil. For the same compound, in the experiment on Meloidogyne incognita [4], the “root-knot index of plants, Avg. value” amounted to 26.44ab; the “root-knot index of plants, R1” value was 27.33; the “root-knot index of plants, R3” value was determined as 26.33. Moreover, in the experiment with Meloidogyne incognita [4] (setting [7]), the “Control effect on root-knot index” value is 26.77%.
Turning to `Cc1cccc2sc3nncn3c12` [CK3, Tricyclazole], in the experiment with Rice blast [1], the “Avg. panicle blast disease index” value is 0.65 and the Relative control is 74.7A %. In addition, in the experiment with Rice blast [2] (7 d After first administration), the “Avg. leaf blast disease index” value was 2.04 and the Avg. control effect was 48.2A %. Further, in the experiment with Rice blast [2] (setting [5]), the “Avg. leaf blast disease index” value came out at 2.14 and the Avg. control effect is 60.3A %. Besides, in the experiment with Rice blast [2] (setting [6]), the “Leaf rust before administration” value worked out at 1.59.
